Source: patent publication US20160237032A1, “PROCESS TO MANUFACTURE N-[(3S)-1-[4-[(3-FLUOROPHENYL)METHOXY]PHENYL]-5-OXO-PYRROLIDIN-3-YL]ACETAMIDE” (Hoffmann-La Roche Inc., priority 2013, published 2016)

Assay: thermodynamic stability of polymorphic forms
Type: physicochemical
Details: at room temperature

## CC(=O)N[C@H]1CC(=O)N(c2ccc(OCc3cccc(F)c3)cc2)C1 [Polymorph B, N-[(3S)-1-[4-[(3-fluorophenyl)methoxy]phenyl]-5-oxo-pyrrolidin-3-yl]acetamide]
  thermodynamic stability of the crystal form: thermodynamically stable form
